From patent US12281118B2, “Nitrogen-containing fused heterocyclic SHP2 inhibitor compound, preparation method, and use” (SHANGHAI RINGENE BIOPHARMA CO., LTD., priority 2018, dated 2025)
Read-outs that look alike come from different tables or passages of the source.

Key:
[1] = tested on: MV 4-11 tumor cell xenograft; test: Growth inhibition of xenograft in nude mice; format: in vivo; details: 30 mg/kg, orally, once daily, for 21 consecutive days
From the text: (§1) Experimental method: 1) Culturing MV 4-11/KYSE520/NCI-H358 cells in a culture medium containing 10% fetal bovine serum. Harvesting tumor cells at an exponential growth phase, and resuspending in PBS to suitable concentrations for subcutaneous tumor inoculation in nude mice. 2) Subcutaneously inoculating 2-8×10^7 tumor cells at the right back of a mouse, and resuspending the cells in PBS and matrigel (1:1); observing tumor growth regularly, and randomizing mice for administration based on tumor size and mouse body weight when tumors grow to a mean volume of ˜120 mm^3-[…]. 3) Defining the day of tumor cell inoculation as Day 0. Prior to the start of dosing, weighing all animals and measuring the tumor volume with a vernier caliper. 3) Administering orally compound of examples (prepared with water for injection containing 1% Tween80 to a desired concentration for use) at a given dose for three consecutive weeks, and giving an equal amount of solvent animals in a solvent control group. Measuring diameters of the xenograft twice a week throughout the experiment, and weighing the mice were at the same time.
(§2) The calculation formula of tumor volume (TV) is: TV=½×a×b^2, wherein a and b represent length and width, respectively. The relative tumor volume (RTV) is calculated based on the measured results using the formula: RTV=Vt/V0, wherein V0 is the tumor volume measured at the time of dosing in separate cages (i.e., Day 0) and Vt is the tumor volume at each measurement. The anti-tumor activity is evaluated by the following measures: 1) relative tumor proliferation rate T/C (%), which is calculated by the following formula: T/C (%)=(TRTV/CRTV)×100%, wherein TRTV: RTV of ae treatment group; CRTV: RTV of a negative control group; 2) inhibition rate of tumor volume growth GI %, which is calculated by the following formula: GI %=[1−(TVt−TV0)/(CVt−[…])]×100%, wherein TVt is the tumor volume at each measurement in the treatment group; TV0 is the tumor volume obtained at the time of dosing in separate cages in the treatment group; CVt is the tumor volume at each measurement in the control group; CV0 is the tumor volume obtained at the time of dosing in separate cages in the control group (specific data are shown in Table 4).

[2] = tested on: KYSE520 tumor cell xenograft; test: Growth inhibition of xenograft in nude mice; format: in vivo; details: 30 mg/kg, orally, once daily, for 21 consecutive days
From the text: as §1, §2

MV4-11 leukemia cells = test: Inhibition of proliferation of MV4-11 leukemia cells (CellTiter-Glo, 72 h); format: cell-based; details: read-out: IC50 value, MV4-11 cell proliferation
Method: Specific experimental procedures: 1) At Day 0: Inoculating trypsin-digested cells in 96-well plate and suspending the plate in cell culture medium; measure cell density using an automatic cell counter, diluting the cells with the culture medium to appropriate density, adding 100 μl of cell suspension in the 96-well plate, and incubating a cell-free medium as a control well in a cell incubator with […] at 37° C. overnight; 2) Day 1: Treating test compounds of the cells using a drug for a total of 8 concentrations, and diluting at a 3× concentration, wherein 10 μM is a starting test concentration of the test compounds. […] IC50 values are obtained by a four-parameter regression using software attached to the plate reader (the specific results are shown in Table 2).

SHP2 enzyme = SHP2 enzyme (Homo sapiens (Human), UniProt Q06124); test: Inhibitory activity against SHP2 enzyme (Caliper conversion rate); format: biochemical; details: read-out: SHP2 Enzyme Inhibition IC50 Value
Method: (1) Preparing 1×Reaction Buffer according to the BPS Biosciences' Instructions for Use of the SHP2 enzyme. (2) Preparing a compound concentration gradient: Test the test compound at 10 μM under 3× dilution for 10 concentrations, diluting to a 100% dimethyl sulfoxide solution at a 100× final concentration in a 384-well plate, and diluting the compound with Precision 4× for 10 concentrations. Transferring 250 nL of the compound at the 100× final concentration to a target plate OptiPlate-384F using a dispenser Echo 550. […] (3) Preparing the activation peptide solution at a 5× final concentration with the 1×Reaction Buffer, adding 5 μL of the solution to a reaction plate, respectively, and centrifuging at 1000 rpm for 1 min. (4) Preparing an enzyme solution at a 2.5× final concentration with the 1×Reaction Buffer, adding 10 μL of the solution to the reaction plate, respectively, centrifuging at 1000 rpm for 1 min, and incubating at room temperature for 60 min. (5) Preparing a substrate peptide solution at a 2.5× final concentration with the 1×Reaction Buffer, centrifuging at 1000 rpm for 1 min, and incubating at room temperature for 30 min. (6) Adding 30 μL of stop test solution to stop the reaction, centrifuging at 1000 rpm for […], and mixing well by shaking. (7) Reading the conversion rate with a Caliper EZ Reader. (7) Data analysis:
Wherein: Conversion %/_sample is the reading of a conversion rate of a sample; Conversion %_min: mean of negative control wells, which represents the reading of a conversion rate in absence of enzyme activity wells; Conversion %_max: mean of a ratio of positive control wells, which represents the reading of a conversion rate in absence of compound inhibition wells.

[3] = tested on: NCI-H358 tumor cell xenograft; test: Growth inhibition of xenograft in nude mice; format: in vivo; details: 10 mg/kg, orally, once daily, for 21 consecutive days
From the text: as §1, §2

Sequence of SHP2 enzyme (Q06124 whole entry): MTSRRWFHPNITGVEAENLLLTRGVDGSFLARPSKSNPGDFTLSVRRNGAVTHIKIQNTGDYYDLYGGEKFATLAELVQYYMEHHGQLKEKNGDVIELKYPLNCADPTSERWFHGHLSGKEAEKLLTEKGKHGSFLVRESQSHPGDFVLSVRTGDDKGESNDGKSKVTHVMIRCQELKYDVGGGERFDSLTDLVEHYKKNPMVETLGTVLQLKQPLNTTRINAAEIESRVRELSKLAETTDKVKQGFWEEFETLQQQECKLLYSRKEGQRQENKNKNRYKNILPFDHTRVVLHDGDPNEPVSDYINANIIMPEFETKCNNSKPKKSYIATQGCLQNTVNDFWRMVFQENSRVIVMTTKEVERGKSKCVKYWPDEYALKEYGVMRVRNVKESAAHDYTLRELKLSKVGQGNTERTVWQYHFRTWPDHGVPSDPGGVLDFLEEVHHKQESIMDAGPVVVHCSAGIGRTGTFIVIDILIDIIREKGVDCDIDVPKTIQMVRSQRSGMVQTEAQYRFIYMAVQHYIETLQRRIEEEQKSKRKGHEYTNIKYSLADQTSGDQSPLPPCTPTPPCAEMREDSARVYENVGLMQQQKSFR

| Structure (SMILES) | T/C [1] | T/C [2] | IC50 (MV4-11 leukemia cells; 72 h) | IC50 (SHP2 enzyme) | T/C [3] | IC50 (MV4-11 leukemia cells; Homo sapiens, MV4-11, 72 h) |
| --- | --- | --- | --- | --- | --- | --- |
| CC1(N)CCN(c2cnc(-c3cccc(Cl)c3Cl)c(N)n2)CC1 [SHP099, reference compound] | 47% | 43% | 1670 nM | – | – | – |
| Cc1nc(N2CCC3(CC2)CO[C@@H](C)[C@H]3N)n2ccnc2c1Sc1ccnc(N)c1Cl [Comparative Compound 3, reference compound] | – | – | – | 6.8 nM | 39% | 43 nM |
